# Patent publication US11959929B2, “Method of quantifying lysergic acid diethylamide (LSD) and 2,3-dihydro-3-hydroxy-2-oxo lysergide (O-H-LSD) in human plasma” (Universitatsspital Basel, priority 2020, dated 2024)
# “And” between values parts separate entries of the source, which are not always exact repeats. Identical values can stand only once.
# Experiment: Bench-top (short-term) stability test in human plasma, 8 hours at ambient temperature
# Format: physicochemical
# Conditions: for Change in concentration [%]: 8 h at RT vs Baseline; for Accuracy: single QC replicate; for Change in plasma concentration after 8 hours storage at room temperature: human plasma QC samples, 8 hours at room temperature, vs freshly processed QC
# Text: Each analyte had to be stable in human plasma for at least three freeze-thaw cycles (for repeated sample preparations) and at ambient temperature for at least eight hours (maximal duration of sample preparation). Measured samples should be stable for a second injection when the first analytical run was not valid. The analytes had to be stable in the matrix at the intended storage temperatures and study duration.
# An analyte was considered stable at one of the above tests when no increase or decrease of the analyte concentration of more than 15% for the mean of at least three analyzed QC samples at low, medium and at high concentration was observed.
# Seven of each LLOQ, QCLOW, QCMID, QCHIGH, and ULOQ samples in human plasma were thawed at ambient temperature and kept at this temperature for 8 hours. Afterwards, the samples were worked up and analyzed. The values of the concentrations in the “short-term” samples were compared with freshly processed QC samples. Concentrations were calculated based on two freshly prepared CAL sets measured at the beginning and the end of the validation run.
SMILES,"Accuracy, Intra-assay Mean (LLOQ: 10 pg/ml, 8 h at RT)",Change in concentration [%] (LLOQ: 10 pg/ml),"Accuracy (LLOQ: 10 pg/ml, 8 h at RT)","Accuracy, Intra-assay Mean (LLOQ: 10 pg/ml, Baseline)","Accuracy (LLOQ: 10 pg/ml, Baseline)","Accuracy, Intra-assay Mean (QCHIGH: 1000 pg/ml, 8 h at RT)",Change in concentration [%] (QCHIGH: 1000 pg/ml),"Accuracy (QCHIGH: 1000 pg/ml, 8 h at RT)","Accuracy, Intra-assay Mean (QCHIGH: 1000 pg/ml, Baseline)","Accuracy (QCHIGH: 1000 pg/ml, Baseline)","Accuracy, Intra-assay Mean (QCLOW: 25 pg/ml, 8 h at RT)",Change in concentration [%] (QCLOW: 25 pg/ml),"Accuracy (QCLOW: 25 pg/ml, 8 h at RT)","Accuracy, Intra-assay Mean (QCLOW: 25 pg/ml, Baseline)","Accuracy (QCLOW: 25 pg/ml, Baseline)","Accuracy, Intra-assay Mean (QCMID: 100 pg/ml, 8 h at RT)",Change in concentration [%] (QCMID: 100 pg/ml),"Accuracy (QCMID: 100 pg/ml, 8 h at RT)","Accuracy, Intra-assay Mean (QCMID: 100 pg/ml, Baseline)","Accuracy (QCMID: 100 pg/ml, Baseline)",also measured
"CCN(CC)C(=O)C1C=C2c3cccc4c3C(O)(C[C@H]2N(C)C1)C(=O)N4 (some centres unmarked) [O-H-LSD, 2,3-dihydro-3-hydroxy-2-oxo lysergide]",91.2%,0.176%,90.4% and 94.3% and 63.8* % and 77.5* % and 83.1% and 101% and 87.9%,91.1%,95% and 88.9% and 89.4%,95.1%,−1.51%,96% and 100% and 91.8% and 94.6% and 93.6% and 95.8% and 93.9%,96.6%,97.7% and 96.2% and 95.9%,96.4%,1.1%,89.2% and 93.3% and 97.6% and 102% and 103% and 97.1% and 91.9%,95.3%,94.7% and 91.5% and 99.8%,95.8%,0.652%,97.1% and 91.5% and 95.2% and 98.3% and 94.6% and 99.6% and 94.5%,95.2%,95.7% and 98.6% and 91.4%,"Found at, Intra-assay Mean (LLOQ: 10 pg/ml, 8 h at RT): 9.13 pg/mL; Found at, Intra-assay Mean (LLOQ: 10 pg/ml, Baseline): 9.11 pg/mL; Found at, Intra-assay Mean (QCHIGH: 1000 pg/ml, 8 h at RT): 951 pg/mL; Found at, Intra-assay Mean (QCHIGH: 1000 pg/ml, Baseline): 966 pg/mL; Found at, Intra-assay Mean (QCLOW: 25 pg/ml, 8 h at RT): 24.1 pg/mL; Found at, Intra-assay Mean (QCLOW: 25 pg/ml, Baseline): 23.8 pg/mL; Found at, Intra-assay Mean (QCMID: 100 pg/ml, 8 h at RT): 95.8 pg/mL; Found at, Intra-assay Mean (QCMID: 100 pg/ml, Baseline): 95.2 pg/mL; Accuracy, Intra-assay Mean (ULOQ: 10000 pg/ml, 8 h at RT): 91.1%; Found at, Intra-assay Mean (ULOQ: 10000 pg/ml, 8 h at RT): 9110 pg/mL; Change in concentration [%] (ULOQ: 10000 pg/ml): −4.52%; Accuracy (ULOQ: 10000 pg/ml, 8 h at RT): 90.2% and 93% and 90.7% and 88.2% and 93.2% and 91.5% and 91.1%; Accuracy, Intra-assay Mean (ULOQ: 10000 pg/ml, Baseline): 95.4%; Found at, Intra-assay Mean (ULOQ: 10000 pg/ml, Baseline): 9540 pg/mL; Accuracy (ULOQ: 10000 pg/ml, Baseline): 94.2% and 92.3% and 99.7%; Change in plasma concentration after 8 hours storage at room temperature: ≤ 4.52%"
"CCN(CC)C(=O)[C@@H]1C=C2c3cccc4[nH]cc(c34)C[C@H]2N(C)C1 [LSD, Lysergic acid diethylamide]",88.3%,3.81%,91.6% and 85.6% and 74.7* % and 83.10% and 92% and 86.1% and 91.7%,91.8%,96.6% and 95.7% and 83.2%,97.8%,1.99%,98.2% and 98.3% and 97.2% and 96.8% and 96.2% and 97.7% and 100%,95.9%,96.9% and 96.4% and 94.3%,92.7%,0.0885%,96% and 92.9% and 94.5% and 87.6% and 94.4% and 93.3% and 90%,92.6%,94% and 93.4% and 90.5%,96%,−1.51%,95.9% (2×) and 95.8% and 94.2% and 91.1% and 99.2% and 99.7%,97.5%,101% and 94.3% and 97.4%,"Accuracy, Intra-assay Mean (ULOQ: 10000 pg/ml, 8 h at RT): 94.9%; Change in concentration [%] (ULOQ: 10000 pg/ml): −1.74%; Accuracy (ULOQ: 10000 pg/ml, 8 h at RT): 94.7% and 93.4% and 94.6% and 96.9% and 95.4% and 95% and 94.3%; Accuracy, Intra-assay Mean (ULOQ: 10000 pg/ml, Baseline): 96.6%; Accuracy (ULOQ: 10000 pg/ml, Baseline): 94.7% and 94.9% and 100%; Change in plasma concentration after 8 hours storage at room temperature: ≤ 3.81%"
